Assay results reported in ChEMBL document CHEMBL5715952 (Oncotarget, 2015).

Key:
[1] = Inhibition of CSF1R/FLT3 in human RPMI-8226 cells assessed as reduction of cell growth incubated for 72 hrs by CellTiter 96 aqueous one solution cell proliferation assay; format: cell-based; conditions: RPMI-8226, 72 h
[2] = Inhibition of CSF1R/FLT3 in bortezomib Resistant human RPMI-8226 cells assessed as reduction of cell growth incubated for 72 hrs by CellTiter 96 aqueous one solution cell proliferation assay; format: cell-based; conditions: Bortezomib-resistant RPMI-8226, 72 h
[3] = Inhibition of CSF1R/FLT3 in human bortezomib-resistant ANBL6 cells assessed as reduction of cell growth incubated for 72 hrs by CellTiter 96 aqueous one solution cell proliferation assay; format: cell-based
[4] = Inhibition of CSF1R/FLT3 in human U-266 cells assessed as reduction of cell growth incubated for 72 hrs by CellTiter 96 aqueous one solution cell proliferation assay; format: cell-based; conditions: U-266, 72 h
[5] = Inhibition of CSF1R/FLT3 in Melphalan Resistant human RPMI-8226 cells assessed as reduction of cell growth incubated for 72 hrs by CellTiter 96 aqueous one solution cell proliferation assay; format: cell-based; conditions: Melphalan-resistant RPMI-8226 cell
[6] = Ratio of IC50 for inhibition of CSF1R/FLT3 in human ANBL6 cells assessed as reduction of cell viability to IC50 for inhibition of CSF1R/FLT3 in human ANBL6/BR resistant cells assessed as reduction of cell viability; conditions: condition multiple myeloma
[7] = Inhibition of CSF1R/FLT3 in human ANBL-6 cells assessed as reduction of cell growth incubated for 72 hrs by CellTiter 96 aqueous one solution cell proliferation assay; format: cell-based; conditions: ANBL-6, 72 h
[8] = Ratio of IC50 for inhibition of CSF1R/FLT3 in human RPMI-8226 cells assessed as reduction of cell viability to IC50 for inhibition of CSF1R/FLT3 in human RPMI-8226/BR resistant cells assessed as reduction of cell viability; conditions: condition multiple myeloma
[9] = Ratio of IC50 for inhibition of CSF1R/FLT3 in human RPMI-8226 cells assessed as reduction of cell viability to IC50 for inhibition of CSF1R/FLT3 in human melphalan-resistant RPMI-8226 cells assessed as reduction of cell viability; conditions: time 72 hrs; condition multiple myeloma
[10] = Inhibition of PI3K/mTOR/ATM in human U-266 cells assessed as reduction of cell growth incubated for 72 hrs by CellTiter 96 aqueous one solution cell proliferation assay; format: cell-based; conditions: U-266, 72 h
[11] = Ratio of IC50 for inhibition of PI3K/mTOR/ATM in human RPMI-8226 cells assessed as reduction of cell viability to IC50 for inhibition of PI3K/mTOR/ATM in human RPMI-8226/BR resistant cells assessed as reduction of cell viability; conditions: condition multiple myeloma
[12] = Inhibition of PI3K/mTOR/ATM in Melphalan Resistant human RPMI-8226 cells assessed as reduction of cell growth incubated for 72 hrs by CellTiter 96 aqueous one solution cell proliferation assay; format: cell-based; conditions: Melphalan-resistant RPMI-8226 cell
[13] = Ratio of IC50 for inhibition of PI3K/mTOR/ATM in human RPMI-8226 cells assessed as reduction of cell viability to IC50 for inhibition of PI3K/mTOR/ATM in human melphalan-resistant RPMI-8226 cells assessed as reduction of cell viability; conditions: time 72 hrs; condition multiple myeloma
[14] = Inhibition of PI3K/mTOR/ATM in human bortezomib-resistant ANBL6 cells assessed as reduction of cell growth incubated for 72 hrs by CellTiter 96 aqueous one solution cell proliferation assay; format: cell-based
[15] = Inhibition of PI3K/mTOR/ATM in bortezomib Resistant human RPMI-8226 cells assessed as reduction of cell growth incubated for 72 hrs by CellTiter 96 aqueous one solution cell proliferation assay; format: cell-based; conditions: Bortezomib-resistant RPMI-8226, 72 h
[16] = Ratio of IC50 for inhibition of PI3K/mTOR/ATM in human ANBL6 cells assessed as reduction of cell viability to IC50 for inhibition of PI3K/mTOR/ATM in human ANBL6/BR resistant cells assessed as reduction of cell viability; conditions: condition multiple myeloma
[17] = Inhibition of PI3K/mTOR/ATM in human ANBL-6 cells assessed as reduction of cell growth incubated for 72 hrs by CellTiter 96 aqueous one solution cell proliferation assay; format: cell-based; conditions: ANBL-6, 72 h
[18] = Inhibition of PI3K/mTOR/ATM in human RPMI-8226 cells assessed as reduction of cell growth incubated for 72 hrs by CellTiter 96 aqueous one solution cell proliferation assay; format: cell-based; conditions: RPMI-8226, 72 h
[19] = Inhibition of VEGFR3/PDGFR/cKIT/RET in human ANBL-6 cells assessed as reduction of cell growth incubated for 72 hrs by CellTiter 96 aqueous one solution cell proliferation assay; format: cell-based; conditions: ANBL-6, 72 h
[20] = Ratio of IC50 for inhibition of VEGFR3/PDGFR/cKIT/RET in human RPMI-8226 cells assessed as reduction of cell viability to IC50 for inhibition of VEGFR3/PDGFR/cKIT/RET in human RPMI-8226/BR resistant cells assessed as reduction of cell viability; conditions: condition multiple myeloma
[21] = Inhibition of VEGFR2/PDGFR/cKIT/RET in human U-266 cells assessed as reduction of cell growth incubated for 72 hrs by CellTiter 96 aqueous one solution cell proliferation assay; format: cell-based; conditions: U-266, 72 h
[22] = Inhibition of VEGFR1/PDGFR/cKIT/RET in human U-266 cells assessed as reduction of cell growth incubated for 72 hrs by CellTiter 96 aqueous one solution cell proliferation assay; format: cell-based; conditions: U-266, 72 h
[23] = Inhibition of VEGFR1/PDGFR/cKIT/RET in human ANBL-6 cells assessed as reduction of cell growth incubated for 72 hrs by CellTiter 96 aqueous one solution cell proliferation assay; format: cell-based; conditions: ANBL-6, 72 h
[24] = Inhibition of VEGFR1/PDGFR/cKIT/RET in Melphalan Resistant human RPMI-8226 cells assessed as reduction of cell growth incubated for 72 hrs by CellTiter 96 aqueous one solution cell proliferation assay; format: cell-based; conditions: Melphalan-resistant RPMI-8226 cell
[25] = Ratio of IC50 for inhibition of VEGFR3/PDGFR/cKIT/RET in human ANBL6 cells assessed as reduction of cell viability to IC50 for inhibition of VEGFR3/PDGFR/cKIT/RET in human ANBL6/BR resistant cells assessed as reduction of cell viability; conditions: condition multiple myeloma
[26] = Inhibition of VEGFR3/PDGFR/cKIT/RET in human U-266 cells assessed as reduction of cell growth incubated for 72 hrs by CellTiter 96 aqueous one solution cell proliferation assay; format: cell-based; conditions: U-266, 72 h
[27] = Inhibition of VEGFR3/PDGFR/cKIT/RET in human bortezomib-resistant ANBL6 cells assessed as reduction of cell growth incubated for 72 hrs by CellTiter 96 aqueous one solution cell proliferation assay; format: cell-based
[28] = Ratio of IC50 for inhibition of VEGFR2/PDGFR/cKIT/RET in human ANBL6 cells assessed as reduction of cell viability to IC50 for inhibition of VEGFR2/PDGFR/cKIT/RET in human ANBL6/BR resistant cells assessed as reduction of cell viability; conditions: condition multiple myeloma
[29] = Inhibition of VEGFR1/PDGFR/cKIT/RET in human bortezomib-resistant ANBL6 cells assessed as reduction of cell growth incubated for 72 hrs by CellTiter 96 aqueous one solution cell proliferation assay; format: cell-based
[30] = Ratio of IC50 for inhibition of VEGFR3/PDGFR/cKIT/RET in human RPMI-8226 cells assessed as reduction of cell viability to IC50 for inhibition of VEGFR3/PDGFR/cKIT/RET in human melphalan-resistant RPMI-8226 cells assessed as reduction of cell viability; conditions: time 72 hrs; condition multiple myeloma
[31] = Ratio of IC50 for inhibition of VEGFR1/PDGFR/cKIT/RET in human RPMI-8226 cells assessed as reduction of cell viability to IC50 for inhibition of VEGFR1/PDGFR/cKIT/RET in human RPMI-8226/BR resistant cells assessed as reduction of cell viability; conditions: condition multiple myeloma
[32] = Inhibition of VEGFR3/PDGFR/cKIT/RET in human RPMI-8226 cells assessed as reduction of cell growth incubated for 72 hrs by CellTiter 96 aqueous one solution cell proliferation assay; format: cell-based; conditions: RPMI-8226, 72 h
[33] = Inhibition of VEGFR2/PDGFR/cKIT/RET in bortezomib Resistant human RPMI-8226 cells assessed as reduction of cell growth incubated for 72 hrs by CellTiter 96 aqueous one solution cell proliferation assay; format: cell-based; conditions: Bortezomib-resistant RPMI-8226, 72 h
[34] = Inhibition of VEGFR2/PDGFR/cKIT/RET in human ANBL-6 cells assessed as reduction of cell growth incubated for 72 hrs by CellTiter 96 aqueous one solution cell proliferation assay; format: cell-based; conditions: ANBL-6, 72 h
[35] = Ratio of IC50 for inhibition of VEGFR2/PDGFR/cKIT/RET in human RPMI-8226 cells assessed as reduction of cell viability to IC50 for inhibition of VEGFR2/PDGFR/cKIT/RET in human RPMI-8226/BR resistant cells assessed as reduction of cell viability; conditions: condition multiple myeloma
[36] = Ratio of IC50 for inhibition of VEGFR1/PDGFR/cKIT/RET in human RPMI-8226 cells assessed as reduction of cell viability to IC50 for inhibition of VEGFR1/PDGFR/cKIT/RET in human melphalan-resistant RPMI-8226 cells assessed as reduction of cell viability; conditions: time 72 hrs; condition multiple myeloma
[37] = Inhibition of VEGFR3/PDGFR/cKIT/RET in Melphalan Resistant human RPMI-8226 cells assessed as reduction of cell growth incubated for 72 hrs by CellTiter 96 aqueous one solution cell proliferation assay; format: cell-based; conditions: Melphalan-resistant RPMI-8226 cell
[38] = Inhibition of VEGFR1/PDGFR/cKIT/RET in bortezomib Resistant human RPMI-8226 cells assessed as reduction of cell growth incubated for 72 hrs by CellTiter 96 aqueous one solution cell proliferation assay; format: cell-based; conditions: Bortezomib-resistant RPMI-8226, 72 h
[39] = Inhibition of VEGFR2/PDGFR/cKIT/RET in Melphalan Resistant human RPMI-8226 cells assessed as reduction of cell growth incubated for 72 hrs by CellTiter 96 aqueous one solution cell proliferation assay; format: cell-based; conditions: Melphalan-resistant RPMI-8226 cell
[40] = Inhibition of VEGFR2/PDGFR/cKIT/RET in human RPMI-8226 cells assessed as reduction of cell growth incubated for 72 hrs by CellTiter 96 aqueous one solution cell proliferation assay; format: cell-based; conditions: RPMI-8226, 72 h
[41] = Inhibition of VEGFR1/PDGFR/cKIT/RET in human RPMI-8226 cells assessed as reduction of cell growth incubated for 72 hrs by CellTiter 96 aqueous one solution cell proliferation assay; format: cell-based; conditions: RPMI-8226, 72 h
[42] = Ratio of IC50 for inhibition of VEGFR2/PDGFR/cKIT/RET in human RPMI-8226 cells assessed as reduction of cell viability to IC50 for inhibition of VEGFR2/PDGFR/cKIT/RET in human melphalan-resistant RPMI-8226 cells assessed as reduction of cell viability; conditions: time 72 hrs; condition multiple myeloma
[43] = Inhibition of VEGFR3/PDGFR/cKIT/RET in bortezomib Resistant human RPMI-8226 cells assessed as reduction of cell growth incubated for 72 hrs by CellTiter 96 aqueous one solution cell proliferation assay; format: cell-based; conditions: Bortezomib-resistant RPMI-8226, 72 h
[44] = Inhibition of VEGFR2/PDGFR/cKIT/RET in human bortezomib-resistant ANBL6 cells assessed as reduction of cell growth incubated for 72 hrs by CellTiter 96 aqueous one solution cell proliferation assay; format: cell-based
[45] = Ratio of IC50 for inhibition of VEGFR1/PDGFR/cKIT/RET in human ANBL6 cells assessed as reduction of cell viability to IC50 for inhibition of VEGFR1/PDGFR/cKIT/RET in human ANBL6/BR resistant cells assessed as reduction of cell viability; conditions: condition multiple myeloma
cells [46] = conditions: Homo sapiens, U-266, 72 h
[47] = Ratio of IC50 for inhibition of hedgehog in human RPMI-8226 cells assessed as reduction of cell viability to IC50 for inhibition of hedgehog in human RPMI-8226/BR resistant cells assessed as reduction of cell viability; conditions: condition multiple myeloma
cells [48] = conditions: Homo sapiens, RPMI-8226, 72 h
cells [49] = conditions: Homo sapiens, Melphalan-resistant RPMI-8226 cell, 72 h
cells [50] = conditions: Homo sapiens, ANBL-6, 72 h
[51] = Ratio of IC50 for inhibition of hedgehog in human RPMI-8226 cells assessed as reduction of cell viability to IC50 for inhibition of hedgehog in human melphalan-resistant RPMI-8226 cells assessed as reduction of cell viability; conditions: time 72 hrs; condition multiple myeloma
cells [52] = conditions: Homo sapiens, Bortezomib-resistant ANBL6 cell, 72 h
[53] = Ratio of IC50 for inhibition of hedgehog in human ANBL6 cells assessed as reduction of cell viability to IC50 for inhibition of hedgehog in human ANBL6/BR resistant cells assessed as reduction of cell viability; conditions: condition multiple myeloma
cells [54] = conditions: Homo sapiens, Bortezomib-resistant RPMI-8226, 72 h

CN(C)CC(=O)N1CCC(c2ccc(NC(=O)c3nc(C#N)c[nH]3)c(C3=CCCCC3)c2)CC1
10 µM: IC50 [1] | IC50 [2] | IC50 [3] | IC50 [4] | IC50 [5] | IC50 [7]
1: Ratio IC50 [6] | Ratio IC50 [8] | Ratio IC50 [9]

O=c1cc(-c2cccc3c2Sc2ccccc2S3)oc(N2CCOCC2)c1 [KU-55933]
10 µM: IC50 [10] | IC50 [12] | IC50 [14] | IC50 [15] | IC50 [17] | IC50 [18]
1: Ratio IC50 [11] | Ratio IC50 [13] | Ratio IC50 [16]

CC1(C)CNc2cc(NC(=O)c3cccnc3NCc3ccncc3)ccc21 [MOTESANIB]
10 µM: IC50 [19] | IC50 [21] | IC50 [22] | IC50 [23] | IC50 [24] | IC50 [26] | IC50 [27] | IC50 [29] | IC50 [32] | IC50 [33] | IC50 [34] | IC50 [37] | IC50 [38] | IC50 [39] | IC50 [40] | IC50 [41] | IC50 [43] | IC50 [44]
1: Ratio IC50 [20] | Ratio IC50 [25] | Ratio IC50 [28] | Ratio IC50 [30] | Ratio IC50 [31] | Ratio IC50 [35] | Ratio IC50 [36] | Ratio IC50 [42] | Ratio IC50 [45]

CS(=O)(=O)c1ccc(C(=O)Nc2ccc(Cl)c(-c3ccccn3)c2)c(Cl)c1 [VISMODEGIB]
1: Ratio IC50 [47] | Ratio IC50 [51] | Ratio IC50 [53]
10 µM: IC50 (cells [46]) | IC50 (cells [48]) | IC50 (cells [49]) | IC50 (cells [50]) | IC50 (cells [52]) | IC50 (cells [54])
